Experimental data as given in ChEMBL document CHEMBL5236550, “Small molecule selenium-containing compounds: Recent development and therapeutic applications” (Eur J Med Chem, 2021).
Converted amounts (≈) assume the structure as drawn.

Key:
[1] = tested on: Candida albicans; test: Antifungal activity against Candida albicans assessed as fungal growth inhibition incubated by microtitre assay; type: functional
[2] = tested on: SH-SY5Y; test: Antitumor activity against human SH-SY5Y cells assessed as induction of apoptosis by propidium iodide staining based flow cytometry analysis; type: functional, cell-based
[3] = tested on: Fusarium; test: Antifungal activity against Fusarium assessed as fungal growth inhibition incubated by microtitre assay; type: functional
[4] = tested on: Aspergillus; test: Antifungal activity against Aspergillus assessed as fungal growth inhibition incubated by microtitre assay; type: functional
[5] = tested on: Trypanosoma cruzi; test: Antibacterial activity against Trypanosoma cruzi Y assessed as fold change in bacterial growth incubated for 24 hrs; type: functional
[6] = tested on: DU-145; test: Anticancer activity against human DU-145 cells assessed as cell growth inhibition incubated for 24 to 96 hrs by MTT assay; type: functional, cell-based
[7] = tested on: PC-3; test: Anticancer activity against human PC-3 cells assessed as cell growth inhibition incubated for 24 to 96 hrs by MTT assay; type: functional, cell-based
[8] = target: Carbonic anhydrase 7 (Homo sapiens, UniProt P43166); test: Inhibition of human carbonic anhydrase 7 assessed as inhibition constant by a stopped flow CO2 hydrase assay
[9] = tested on: HeLa; test: Anticancer activity against human HeLa cells assessed as cell growth inhibition incubated for 72 hrs by MTT assay; type: functional, cell-based
[10] = Inhibition of Vibrio cholerae alpha carbonic anhydrase assessed as inhibition constant by phenol red-based hydrase assay
[11] = tested on: Aspergillus niger; test: […] inhibition incubated for 24 hrs by agar disc diffusion assay; type: functional
[12] = tested on: Trypanosoma cruzi; test: Antibacterial activity against Trypanosoma cruzi Y assessed as bacterial growth inhibition incubated for 24 hrs; type: functional, organism-based
[13] = tested on: Trypanosoma cruzi; test: Antibacterial activity against Trypanosoma cruzi Dm28c assessed as inhibition of bacterial growth incubated for 72 hrs by microplate reader analysis; type: functional, organism-based
[14] = tested on: Leishmania major; test: Antibacterial activity against Leishmania major assessed as bacterial growth inhibition incubated for 72 hrs by MTT assay; type: functional, organism-based
[15] = tested on: Leishmania amazonensis; test: […] inhibition incubated for 72 hrs by Giemsa stain based microscopic analysis; type: functional, organism-based
[16] = Anticancer activity against human SWO-38 cells assessed as cell growth inhibition incubated for 48 hrs by MTT assay; type: functional, cell-based; details: SWO-38, 48 h
[17] = tested on: Escherichia coli; test: Antibacterial activity against Escherichia coli EC 2151612 assessed as bacterial growth inhibition incubated for 20 hrs by […]; type: functional
[18] = tested on: Escherichia coli; test: Antibacterial activity against Escherichia coli EC 1227107 assessed as bacterial growth inhibition incubated for 20 hrs by […]; type: functional
[19] = tested on: Klebsiella pneumoniae; test: Antibacterial activity against Klebsiella pneumoniae KP 21513017 assessed as bacterial growth inhibition incubated for 20 hrs by […]; type: functional, organism-based; details: KP 21513017, 20 h
[20] = tested on: Pseudomonas aeruginosa; test: Antibacterial activity against Pseudomonas aeruginosa PA 58 assessed as bacterial growth inhibition incubated for 20 hrs by […]; type: functional
[21] = tested on: Pseudomonas aeruginosa; test: Antibacterial activity against Pseudomonas aeruginosa ATCC 27853 assessed as bacterial growth inhibition incubated for 20 hrs by […]; type: functional, organism-based; details: ATCC 27853, 20 h
[22] = tested on: Staphylococcus aureus; test: Antibacterial activity against Methicillin resistant Staphylococcus aureus assessed as bacterial growth inhibition incubated for 20 hrs by […]; type: functional
[23] = tested on: Pseudomonas aeruginosa; test: Antibacterial activity against Pseudomonas aeruginosa PA 54 assessed as bacterial growth inhibition incubated for 20 hrs by […]; type: functional, organism-based
[24] = tested on: Klebsiella pneumoniae; test: Antibacterial activity against Klebsiella pneumoniae NRZ-00103 assessed as bacterial growth inhibition incubated for 20 hrs by […]; type: functional, organism-based; details: NRZ-00103, 20 h
[25] = tested on: Klebsiella pneumoniae; test: Antibacterial activity against Klebsiella pneumoniae KP 1963584 assessed as bacterial growth inhibition incubated for 20 hrs by […]; type: functional, organism-based; details: KP 1963584, 20 h
[26] = tested on: Acinetobacter; test: Antibacterial activity against Acinetobacter AC 2151300 assessed as bacterial growth inhibition incubated for 20 hrs by […]; type: functional, organism-based; details: AC 2151300, 20 h
[27] = tested on: Pseudomonas aeruginosa; test: Antibacterial activity against Pseudomonas aeruginosa PA T18 assessed as bacterial growth inhibition incubated for 20 hrs by […]; type: functional, organism-based; details: PA T18, 20 h
[28] = tested on: Acinetobacter; test: Antibacterial activity against Acinetobacter AB 4184/2/5 assessed as bacterial growth inhibition incubated for 20 hrs by […]; type: functional, organism-based; details: AB 4184/2/5, 20 h
[29] = tested on: Escherichia coli; test: Antibacterial activity against Escherichia coli EC 1995591 assessed as bacterial growth inhibition incubated for 20 hrs by […]; type: functional
[30] = tested on: Escherichia coli; test: Antibacterial activity against Escherichia coli NCTC 13351 assessed as bacterial growth inhibition incubated for 20 hrs by […]; type: functional
[31] = tested on: Acinetobacter; test: Antibacterial activity against Acinetobacter AC 1995594 assessed as bacterial growth inhibition incubated for 20 hrs by […]; type: functional, organism-based; details: AC 1995594, 20 h
[32] = tested on: HeLa; test: Anticancer activity against human HeLa assessed as cell growth inhibition; type: functional, cell-based
[33] = tested on: HeLa; test: Anticancer activity against human HeLa cells assessed as cell growth inhibition; type: functional, cell-based
[34] = Inhibition of Vibrio cholerae carbonic anhydrase alpha assessed as inhibition constant by stopped-flow CO2 hydration assay
[35] = tested on: HepG2; test: Anticancer activity against human HepG2 cells assessed as cell growth inhibition incubated for 72 hrs by fluorescence based MTT assay; type: functional; details: HepG2, 72 h
[36] = tested on: A-375; test: Anticancer activity against human A-375 cells assessed as cell growth inhibition incubated for 72 hrs by fluorescence based MTT assay; type: functional; details: A-375, 72 h
[37] = tested on: MCF7; test: Anticancer activity against human MCF7 cells assessed as cell growth inhibition incubated for 72 hrs by fluorescence based MTT assay; type: functional; details: MCF7, 72 h
[38] = tested on: EBC-1; test: Anticancer activity against human EBC-1 cells assessed as cell growth inhibition incubated for 72 hrs by resazurin based spectrophotometer analysis; type: functional; details: EBC-1, 72 h
[39] = tested on: NCI-H1299; test: Anticancer activity against human H1299 cells assessed as cell growth inhibition incubated for 48 hrs by MTT assay; type: functional, cell-based; details: NCI-H1299, 48 h
[40] = tested on: Calu-1; test: Anticancer activity against human HTB-54 cells assessed as cell growth inhibition incubated for 48 hrs by MTT assay; type: functional, cell-based; details: Calu-1, 48 h
[41] = tested on: Enterococcus faecalis; test: Antibacterial activity against Enterococcus faecalis ATCC 29212 assessed as bacterial growth inhibition incubated for 20 to 24 hrs by microdilution assay; type: functional; details: time 20-24 hrs
[42] = tested on: Staphylococcus aureus; test: Antibacterial activity against Staphylococcus aureus HEMSA assessed as bacterial growth inhibition incubated for 20 to 24 hrs by microdilution assay; type: functional; details: time 20-24 hrs
[43] = tested on: Staphylococcus aureus; test: Antibacterial activity against Staphylococcus aureus ATCC 2592 assessed as bacterial growth inhibition incubated for 20 to 24 hrs by microdilution assay; type: functional; details: time 20-24 hrs
[44] = target: Carbonic anhydrase 1 (Homo sapiens, UniProt P00915); test: Inhibition of human carbonic anhydrase 1 assessed as inhibition constant
[45] = target: Carbonic anhydrase 9 (Homo sapiens, UniProt Q16790); test: Inhibition of human carbonic anhydrase 9 assessed as inhibition constant
[46] = target: Carbonic anhydrase 12 (Homo sapiens, UniProt O43570); test: Inhibition of human carbonic anhydrase 12 assessed as inhibition constant
[47] = target: Carbonic anhydrase 2 (Homo sapiens, UniProt P00918); test: Inhibition of human carbonic anhydrase 2 assessed as inhibition constant
[48] = tested on: Bacillus cereus; test: […] activity against Bacillus cereus assessed as bacterial growth inhibition incubated for 24 hrs by microtitre analysis; type: functional
[49] = tested on: Enterococcus faecalis; test: Antibacterial activity against Enterococcus faecalis assessed as bacterial growth inhibition incubated for 24 hrs by microtitre analysis; type: functional
[50] = tested on: Staphylococcus saprophyticus; test: Antibacterial activity against Staphylococcus saprophyticus assessed as bacterial growth inhibition incubated for 24 hrs by microtitre analysis; type: functional
[51] = tested on: Bacillus cereus; test: Antibacterial activity against Bacillus cereus assessed as bacterial growth inhibition incubated for 24 hrs by microtitre analysis; type: functional
[52] = tested on: EJ; test: Anticancer activity against human EJ cells assessed as cell growth inhibition incubated for 72 hrs by MTT assay; type: functional, cell-based
[53] = tested on: U-266; test: Anticancer activity against human U-266 cells assessed as cell growth inhibition incubated for 24 hrs by MTS assay; type: functional, cell-based; details: U-266, 24 h
[54] = tested on: MIA PaCa-2; test: Anticancer activity against human MIA PaCa-2 cells xenografted in female Foxn1nu mouse assessed as reduction in tumor growth po,administered once daily for 28 days; type: functional; details: time 28 day

Chain of Carbonic anhydrase 7 (P43166 whole entry): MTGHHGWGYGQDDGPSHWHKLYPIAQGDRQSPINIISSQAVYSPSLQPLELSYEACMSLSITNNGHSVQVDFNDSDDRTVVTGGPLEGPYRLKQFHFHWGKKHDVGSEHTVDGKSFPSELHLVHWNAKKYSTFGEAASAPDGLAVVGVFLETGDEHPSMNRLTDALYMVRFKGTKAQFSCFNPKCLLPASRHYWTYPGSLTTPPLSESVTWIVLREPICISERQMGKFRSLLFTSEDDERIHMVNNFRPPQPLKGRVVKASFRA
Chain of Carbonic anhydrase 12 (O43570 whole entry): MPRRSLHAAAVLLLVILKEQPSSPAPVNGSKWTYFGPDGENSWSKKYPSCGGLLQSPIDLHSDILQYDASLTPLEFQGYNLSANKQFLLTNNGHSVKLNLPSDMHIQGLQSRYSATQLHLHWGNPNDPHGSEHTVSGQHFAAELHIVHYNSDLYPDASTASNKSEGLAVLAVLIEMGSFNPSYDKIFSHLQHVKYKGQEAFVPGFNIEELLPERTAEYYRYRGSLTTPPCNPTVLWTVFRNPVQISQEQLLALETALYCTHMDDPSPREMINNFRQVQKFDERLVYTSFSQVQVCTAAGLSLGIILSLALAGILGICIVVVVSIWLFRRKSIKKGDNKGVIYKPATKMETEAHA
Chain of Carbonic anhydrase 1 (P00915 whole entry): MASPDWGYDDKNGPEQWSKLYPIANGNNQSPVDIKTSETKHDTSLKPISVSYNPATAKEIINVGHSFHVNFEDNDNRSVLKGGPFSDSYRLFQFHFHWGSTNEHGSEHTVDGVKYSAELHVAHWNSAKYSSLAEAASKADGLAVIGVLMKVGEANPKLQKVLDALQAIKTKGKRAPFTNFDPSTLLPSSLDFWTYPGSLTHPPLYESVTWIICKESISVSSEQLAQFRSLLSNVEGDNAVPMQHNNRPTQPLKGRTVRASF

c1ccc([Se][Se]c2ccccc2)cc1
MIC [1]: 4 µg/mL (≈ 12.8 µM) | IC50 [2]: 30 µM | MIC [3]: 2 µg/mL (≈ 6.41 µM) | MIC [4]: 0.5 µg/mL (≈ 1.6 µM)

CC1(C)OC2=C(CC1[Se]c1ccc(F)cc1)C(=O)C(=O)c1ccccc12 (stereo not given)
fold change (FC) [5]: 2.6

O=c1c2ccccc2[se]n1CCn1[se]c2ccccc2c1=O [ETHASELEN]
IC50 [6]: 15.5 µM | IC50 [7]: 17.8 µM

Cc1ccc([Se]CC(C)N)cc1 (stereo not given)
Ki [8]: 10.4 µM

O=[N+]([O-])c1ccc2n[se]nc2c1
IC50 [9]: 4.8 µM

NS(=O)(=O)c1ccc([Se]CCc2ccccc2)cc1
Ki [10]: 0.0043 µM

CCc1ccccc1-n1c(=[Se])n(C(c2ccccc2)c2ccccc2)c2ccccc21
inhibition zone (IZ) [11]: 27.01 mm

O=C(Cn1ccnc1[N+](=O)[O-])NCc1ccccc1 [BENZNIDAZOLE]
IC50 [12]: 104 µM | IC50 [13]: 12.5 µM

[Se]=C=NCCCCCCC1Cc2cccc3cccc(c23)C1
IC50 [14]: 0.0301 µM | IC50 [15]: 0.28 µM

Nc1ccc(-c2ccc3n[se]nc3c2)cc1N
IC50 [16]: 22.5 µM

CC(C)(O)c1[se][n+]2ccccc2c1Br.[Cl-]
MIC [17]: 0.31 µg/mL | MIC [18]: 0.31 µg/mL | IC50 [19]: 0.31 µg/mL | MIC [20]: 0.31 µg/mL | IC50 [21]: 0.31 µg/mL | MIC [22]: 0.31 µM | IC50 ([23]; PA 54, 20 h): 0.31 µg/mL | MIC ([23]; PA 54, time 20 hrs): 0.31 µg/mL | IC50 [24]: 0.31 µg/mL | IC50 [25]: 0.31 µg/mL | IC50 [26]: 0.31 µg/mL | IC50 [27]: 0.31 µg/mL | IC50 [28]: 0.31 µg/mL | MIC [29]: 0.31 µg/mL | MIC [30]: 0.31 µg/mL | IC50 [31]: 0.31 µg/mL

COC(CNC(=[Se])Nc1ccc([N+](=O)[O-])cc1)c1ccc(O)c(O)c1 (stereo not given)
IC50 [32]: 3.76 µM | IC50 [33]: 1.8 µM

NS(=O)(=O)c1ccc(CCNC(=[Se])NC(=O)c2ccc3c(c2)OCO3)cc1
Ki [34]: 0.0003 µM

O=c1[nH]c(=O)c2n[se]nc2[nH]1
IC50 [35]: 19.6 µM | IC50 [36]: 14.3 µM | IC50 [37]: 46 µM

CN(C)C(SCCCCCCN(C)c1ccc(-n2[se]c3ccccc3c2=O)cc1)=[N+](C)C
IC50 [38]: < 20 µM

Cc1ccc(NC(=[Se])NC(=O)c2ccc3c(c2)OCO3)cc1
IC50 [39]: 1.5 µM | IC50 [40]: 5.9 µM

CC(=O)C[Se]C(=O)c1ccc(Cl)cc1
MIC [41]: 12.5 µM (≈ 3.44 µg/mL) | MIC [42]: 3.91 µM (≈ 1.08 µg/mL) | MIC [43]: 3.12 µM (≈ 0.86 µg/mL)

NS(=O)(=O)c1ccc(CCNC(=O)C[Se]c2ccccc2)cc1
Ki [44]: 0.0642 µM | Ki [45]: 0.0047 µM | Ki [46]: 0.0038 µM | Ki [47]: 0.0049 µM

c1csc([Se][Se]c2cccs2)c1
MIC [48]: 24.2 µg/mL (≈ 74.6 µM) | MIC [49]: 96.8 µg/mL (≈ 298 µM) | MIC [50]: 96.8 µg/mL (≈ 298 µM) | MIC [51]: 24.2 µg/mL (≈ 74.6 µM)

COc1ccc(-c2nc3ccc(-c4ccc5n[se]nc5c4)cc3[nH]2)cc1
IC50 [52]: 1.48 µM

O=c1c2ccccc2[se]n1-c1ccccc1 [EBSELEN]
IC50 [53]: 40 µM | inhibition (INH) [54]: 58%
